From the NIST ThermoML archive (doi:10.1016/j.jct.2017.06.001)

Assay: xn = mol fraction of the nth substance listed
Details: 100 kPa, Liquid; for mass density: 313.15 K, Vibrating tube method; for speed of sound: 318.15 K, Frequency=5 MHz, Pulse-echo method

OCCCCCO [1,5-pentanediol] + O
Details | mass density [kg/m3] | speed of sound [m/s]
x1 = 0.0005 | – | 1538
x1 = 0.0015 | – | 1540.6
x1 = 0.0027 | – | 1543.4
x1 = 0.0039 | – | 1546.4
x1 = 0.0049 | – | 1548.8
x1 = 0.0058 | – | 1550.9
x1 = 0.0069 | – | 1553.4
x1 = 0.008 | – | 1556
x1 = 0.0092 | – | 1558.5
x1 = 0.0106 | – | 1561.6
x1 = 0.0116 | – | 1563.7
x1 = 0.0129 | – | 1566.4
x1 = 0.0141 | – | 1568.7
x1 = 0.0154 | – | 1571.2
x1 = 0.0168 | – | 1573.9
x1 = 0.0184 | – | 1576.8
x1 = 0.0196 | – | 1578.9
x1 = 0.0215 | – | 1582.2
x1 = 0.0231 | – | 1584.8
x1 = 0.0246 | – | 1587.2
x1 = 0.0263 | – | 1589.8
x1 = 0.0283 | – | 1592.8
x1 = 0.0298 | – | 1594.9
x1 = 0.0316 | – | 1597.5
x1 = 0.0337 | – | 1600.2
x1 = 0.0357 | – | 1602.8
x1 = 0.0378 | – | 1605.4
x1 = 0.0403 | – | 1608.2
x1 = 0.043 | – | 1611.2
x1 = 0.0456 | – | 1613.9
x1 = 0.0487 | – | 1616.8
x1 = 0.0503 | – | 1618.2
x1 = 0.0516 | – | 1619.4
x1 = 0.0548 | – | 1622.1
x1 = 0.0584 | – | 1624.9
x1 = 0.0657 | – | 1629.8
x1 = 0.0682 | – | 1631.3
x1 = 0.072 | – | 1633.3
x1 = 0.0763 | – | 1635.4
x1 = 0.0796 | – | 1636.9
x1 = 0.0848 | – | 1639
x1 = 0.0893 | – | 1640.5
x1 = 0.0963 | – | 1642.5
x1 = 0.1022 | – | 1643.9
x1 = 0.1063 | – | 1644.7
x1 = 0.1107 | – | 1645.4
x1 = 0.1147 | – | 1646
x1 = 0.1186 | – | 1646.4
x1 = 0.1227 | – | 1646.8
x1 = 0.1267 | – | 1647.1
x1 = 0.1324 | – | 1647.4
x1 = 0.138 | – | 1647.6
x1 = 0.1421 | – | 1647.7
x1 = 0.1467 | – | 1647.7
x1 = 0.151 | – | 1647.7
x1 = 0.1559 | – | 1647.6
x1 = 0.1604 | – | 1647.4
x1 = 0.1642 | – | 1647.3
x1 = 0.1668 | – | 1647.1
x1 = 0.17 | – | 1647
x1 = 0.1746 | – | 1646.7
x1 = 0.1759 | – | 1646.6
x1 = 0.1805 | – | 1646.3
x1 = 0.1834 | – | 1646.1
x1 = 0.3 | 990.74 | –
x1 = 0.3343 | 989.99 | –
x1 = 0.4171 | 988.35 | –
x1 = 0.454 | 987.5 | –
x1 = 0.5003 | 986.6 | –
x1 = 0.5362 | 985.8 | –
x1 = 0.6177 | 984.4 | –
x1 = 0.6478 | 983.9 | –
x1 = 0.7025 | 983 | –
x1 = 0.7504 | 982.3 | –
x1 = 0.7927 | 981.6 | –
x1 = 0.8605 | 980.4 | –
x1 = 0.9004 | 979.7 | –
x1 = 0.9496 | 978.8 | –
x1 = 1 | 977.8 | –
